Test results from patent US20070009891A1, “Method for the isolation of expressed sequence tags in plants” (Metapontum Agrobios S.R.L., priority 2003, published 2007).

Columns and labels:
genomic DNA of hard corn = test: Digestion of genomic DNA with restriction enzymes sensitive to methylation (CfoI, Hpa2, Msp1); parameters: species or system Triticum durum; conditions: seedlings about 21 days after germination; 5-azaC 0.1, 0.3, 0.5, 1 mM vs control
Procedure: Analyses for correlating the demethylation degree of the DNA with an increase in the undifferentiated gene expression were carried out by digestion of the genomic DNA with restriction enzymes sensitive to methylation, i.e. enzymes which preferentially act on hypomethylated DNA.
Analyses for correlating the demethylation degree of the DNA with an increase in the undifferentiated gene expression were carried out by digesting the genomic DNA with the following restriction enzymes: Cfol, Hpa2, Msp1 (Roche), sensitive to methylation.
For each reaction, about 5 μg of total DNA were digested with 20 units of enzyme in a final volume of 150 μl, for a night at 37° C. Each digestion product was precipitated and resuspended in 30μl of H2O. The digestion mixtures were separated on agarose gel at 0.8% and subjected to horizontal electrophoresis, for a night at […] (Sambrook, J. et al., 1989, Cold Spring Harbor Laboratory Press).

[1] = test system: undifferentiated gene expression in hard corn seedlings; test: RT-PCR amplification and sequencing of genes expressed in different growth phases, from seedlings germinated with 5-AzaCytidine; parameters: species or system Triticum durum; conditions: MSO germination medium; 0.1-1 mM tested
Text: Furthermore, to confirm the efficiency of the method used, several genes were identified which are expressed in different growth phases of soft corn, of which a large number of sequences are available as this species of corn is more widely studied that hard corn. On the basis of the sequences deposited in data banks (National Center for Biotechnology Information, NCBI; European Bioinformatics Institute, EBI) pairs of oligonucleotides identified in the zones flanking the region encoding the nucleotidic sequence, were prepared, and subsequently used as primers for the amplification of the whole gene being tested. […]
The cDNA inserts were first amplified with the appropriate primers, cloned in the vector p-GEMT and introduced into the competent cells Escherichia coli (E. coli) DH5α. The recombinant clones, containing the expected fragments, were characterized by restriction analysis and their identity was confirmed by effecting sequence reactions carried out using the ABI Prism Big TaqDyeDeoxyTerminator Cycle Sequencing Kit (Applied Biosystems, Nr. 4303149) and analyzed with the automatic ABI 377 DNA Sequencer (Perkin Elmer ABI Prism). […]

hard corn seedlings = test: Germination of hard corn seeds on MSO medium with 5-azaC: seedling phenotype; assay type: in vivo, Triticum durum; conditions: increasing concentration of 5-azaC (0.1-1 mM), aerial part and roots, 24° C. in the dark
Procedure: According to this method, the germination of the seeds is generally effected at a temperature ranging from 20 to 30° C., preferably from 22 to 26° C., in the dark and in the presence of concentrations of 5-azaC ranging from 0.1 mM to 2 mM, preferably from 0.3 mM to 0.5 mM.
Seeds of hard corn (Triticum durum) were sterilized in a solution of ethyl alcohol at 70% for 10 minutes under stirring. After eliminating the ethanol, the seeds were treated with a solution containing sodium hypochlorite (ACE) at 50% and Sodium Dodecyl Sulfate (SDS) at 0.5%, incubated at room temperature for 20 minutes under light stirring.
The seeds were subsequently washed with sterile H2O until the complete removal of the foam (about 7-8 times) and about 15-20 seeds were then placed in a Magenta Box each containing: 30 ml of MSO substrate (Sucrose 15 g/l, Muraschige-Sckug MS salts 2.2 g/l, Thiamin 0.2 mg/l, Myoinositol 50 mg/l, pH 5.6, agar 7 g/l), different concentrations of 5-azac (0.1 mM, 0.3 mM, 0.5 mM and 1 mM) and germinated in a chamber thermostat-regulated at 24° C. in the dark.
Seeds of hard corn left to germinate in MSO medium without 5-azac, were used as a control.

- digestion of the genomic DNA by methylation-sensitive restriction enzymes (demethylation degree) (genomic DNA of hard corn): different digestion of the genomic DNA
Structure (SMILES): Nc1ncn([C@@H]2O[C@H](CO)[C@@H](O)[C@H]2O)c(=O)n1 [5-azaC, 5-AzaCytidine]
- concentration in the germination medium giving the best results (totipotent gene expression) [1]: 0.3 to 0.5 mM
- phenotype of the seedlings compared with control cultivated without 5-azaC (hard corn seedlings): slowing down in the development of the seedlings
